Earlier results as cited in patent US20230218659A1, “Selenium-Based Compositions and Therapeutic Methods” (Hess Pharmaceuticals, Inc, priority 2020, published 2023).

Details: 200 µg/day selenium with or without 400 IU/day vitamin E; 35,533 men aged 50 years or older; after 5.5 years

Compound: [Se] [selenium]
- association between prostate cancer risk and supplementation: no association
